Results published in PubChem BioAssay AID2060361 (Molecular Pharmacology Branch, DTP, NCI, 2025).

System: 463943-066-T-J2-PDC tumor spheroids with HUVEC/MSC, viability
Assay: Anticancer human tumor 463943-066-T-J2-PDC patient-derived colon adenocarcinoma cell line growth inhibition [TAK]
Conditions: for IC50: curve of first compound; for viability, T/C: stronger effect = lower value
Description: Combinatorial screen of targeted agents with TAK-243 and ipatasertib in multi-cell type tumor spheroids
A high-throughput screen of multi-cell type tumor spheroids was designed to identify active combinations of targeted small molecules and TAK-243 or ipatasertib. Complex spheroids include a stromal component modeled by human endothelial cells (HUVEC) and fibroblasts modeled by human mesenchymal stem cells (MSCs). The concentration ranges selected for each drug and investigational agent were based upon clinically achievable concentrations if the clinical Cmax of the agent was known.
Compounds. The drugs and investigational agents: TAK-243 (785004), ipatasertib (767898), everolimus (733504), selumetinib (741078), bortezomib (756655), trametinib (758246), ixazomib (758254), vemurafenib (761431), dabrafenib (764134), sapanisertib (764658), alpelisib (765974), and copanlisib (816437), were obtained from the National Cancer Institute (NCI) Developmental Therapeutics Program Chemical Repository. The FDA-approved anticancer drug set is available from the NCI Developmental Therapeutics Program. […] The stock solutions were prepared in dimethyl sulfoxide (DMSO, Sigma-Aldrich, St. Louis, MO, cat. D2650) at 800-fold the tested concentration and stored at -70 degrees C prior to their use. All drugs and investigational agents were tested over a range starting from a high concentration at or near the clinical Cmax and decreasing in half-log increments. If the clinical Cmax for an agent had not been determined, the highest concentration tested was 10 microM.
NCI60 Cell Culture. NCI60 cell lines were obtained from the NCI Developmental Therapeutics Program Tumor Repository. For each lot of cells, the Repository performed Applied Biosystems AmpFLSTR Identifiler testing with PCR amplification to confirm consistency with the published Identifier STR profile for each cell line. Cells were kept in continuous culture for no more than 20 passages. The optimal seeding densities for each of the cell lines at each time point assessed were determined prior to performing the concentration response studies. Briefly, the NCI60 human tumor lines were grown as monolayers in RPMI 1640 medium supplemented with 10% FBS and 2 mmol/L L-glutamine.
An additional 2 lines were from the NCI60 cell line panel including melanomas, MALME-3M and SK-MEL-2. Pooled donor human umbilical vein endothelial cells (HUVEC, Lonza, cat. CC-2519) and human mesenchymal stem cells (hMSC, Lonza, cat. PT-2501) were purchased from Lonza (Walkersville, MD).
PDMR cell lines were grown in complete medium (DC medium): Dulbecco's modified Eagle's medium (DMEM)/F12 supplemented with 5% fetal bovine serum (FBS), 2 mM L-glutamine, 100 U/mL penicillin and 100 µg/ml streptomycin, 0.4 µg/ml hydrocortisone, 10 ng/ml epidermal growth factor (EGF) recombinant human protein, 24 µg/mL adenine, and 0.1 mg/mL primocin. During culture from frozen stock vials, PDMR cells were cultured in the same medium containing 10 µM Y-27632 (see Table 3). The PDCs were cultured in complete DMEM/F12 media without 10 microM Y-27632 dihydrochloride for at least two passages prior to the screen. The pooled donor HUVEC and hMSC were cultured in endothelial cell growth medium 2 (PromoCell, Heidelberg, Germany, cat. C-22011) and mesenchymal stem cell growth medium 2 (PromoCell, cat. C-28009), respectively. For all experiments, HUVEC and hMSC were used at passages </=5.
For the pre-screen, cell seeding densities were determined from a titration spanning the range from 5,000 to 313 cells per well. The mct-spheroids including 60% malignant cells, 25% HUVEC and 15% MSC dispensed as a mixture into U-bottom Ultra-Low Attachment 384-well plates (Corning, NY)
High-throughput Drug Combination Screening.
Prior to their inoculation into 384-well plates, malignant cells, HUVEC, and hMSC were removed from T flasks using TrypLE express (Thermo Fisher Scientific, cat. 12605036) and harvested by centrifugation for 5 min at 233 x g. […]
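Further: spheroids exposed to drugs for seven days.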
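Wherever viability, T/C is given: 100% = DMSO vehicle control wells.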

Question: What does the source list for `COC1CC2CCC(C)C(O)(O2)C(=O)C(=O)N2CCCCC2C(=O)OC(C(C)CC2CCC(OCCO)C(OC)C2)CC(=O)C(C)C=C(C)C(O)C(OC)C(=O)C(C)CC(C)C=CC=CC=C1C` (stereo not given) + CC(C)NCC(C(=O)N1CCN(c2ncnc3c2C(C)CC3O)CC1)c1ccc(Cl)cc1?
Answer: IC50 (second compound 0.3 µM): > 100 nM; IC50 (second compound 0.949 µM): > 100 nM; IC50 (second compound 3 µM): > 100 nM; IC50 (second compound 9.49 µM): > 100 nM; IC50 (second compound 30 µM): > 100 nM; viability, T/C (second compound 0.3 µM, first compound 0.000316 µM): 91.7%; viability, T/C (second compound 0.3 µM, first compound 0.001 µM): 86.2%; viability, T/C (second compound 0.3 µM, first compound 0.00316 µM): 90.4%; viability, T/C (second compound 0.3 µM, first compound 0.01 µM): 74.8%; viability, T/C (second compound 0.3 µM, first compound 0.0316 µM): 86.5%; viability, T/C (second compound 0.3 µM, first compound 0.1 µM): 77.3%; viability, T/C (second compound 0.949 µM, first compound 0.000316 µM): 85.5%; viability, T/C (second compound 0.949 µM, first compound 0.001 µM): 90.9%; viability, T/C (second compound 0.949 µM, first compound 0.00316 µM): 83.2%; viability, T/C (second compound 0.949 µM, first compound 0.01 µM): 76.4%; viability, T/C (second compound 0.949 µM, first compound 0.0316 µM): 78.8%; viability, T/C (second compound 0.949 µM, first compound 0.1 µM): 80.7%; viability, T/C (second compound 3 µM, first compound 0.000316 µM): 86%; viability, T/C (second compound 3 µM, first compound 0.001 µM): 91.3%; viability, T/C (second compound 3 µM, first compound 0.00316 µM): 81.4%; viability, T/C (second compound 3 µM, first compound 0.01 µM): 80.3%; viability, T/C (second compound 3 µM, first compound 0.0316 µM): 78.2%; viability, T/C (second compound 3 µM, first compound 0.1 µM): 78.3%; viability, T/C (second compound 9.49 µM, first compound 0.000316 µM): 84.8%; viability, T/C (second compound 9.49 µM, first compound 0.001 µM): 76.7%; viability, T/C (second compound 9.49 µM, first compound 0.00316 µM): 81.5%; viability, T/C (second compound 9.49 µM, first compound 0.01 µM): 76.6%; viability, T/C (second compound 9.49 µM, first compound 0.0316 µM): 80%; viability, T/C (second compound 9.49 µM, first compound 0.1 µM): 78.6%; viability, T/C (second compound 30 µM, first compound 0.000316 µM): 85.8%; viability, T/C (second compound 30 µM, first compound 0.001 µM): 79.9%; viability, T/C (second compound 30 µM, first compound 0.00316 µM): 82.8%; viability, T/C (second compound 30 µM, first compound 0.01 µM): 78.8%; viability, T/C (second compound 30 µM, first compound 0.0316 µM): 73.1%; viability, T/C (second compound 30 µM, first compound 0.1 µM): 80.8%

Question: Which IC50 (second compound 0.3 µM) does the source give for `Cn1cnc2c(F)c(Nc3ccc(Br)cc3Cl)c(C(=O)NOCCO)cc21` + CC(C)NCC(C(=O)N1CCN(c2ncnc3c2C(C)CC3O)CC1)c1ccc(Cl)cc1 here?
Answer: The IC50 was > 3000 nM.

Question: And the IC50 (second compound 0.949 µM)?
Answer: The IC50 was > 3000 nM.

Question: What about the IC50 (second compound 3 µM) of the same compound?
Answer: Its IC50 is > 3000 nM.

Question: And the IC50 (second compound 9.49 µM)?
Answer: Its IC50 is > 3000 nM.

Question: And the IC50 (second compound 30 µM)?
Answer: Its IC50 is > 3000 nM.

Question: What about the viability, T/C (second compound 0.3 µM, first compound 0.00949 µM) of the same compound?
Answer: The viability, T/C was 102%.

Question: What about the viability, T/C (second compound 0.3 µM, first compound 0.03 µM) of the same compound?
Answer: The viability, T/C was 115%.

Question: What about the viability, T/C (second compound 0.3 µM, first compound 0.0949 µM) of the same compound?
Answer: The viability, T/C was 92.8%.

Question: What about the viability, T/C (second compound 0.3 µM, first compound 0.3 µM) of the same compound?
Answer: Its viability, T/C is 78%.

Question: What about the viability, T/C (second compound 0.3 µM, first compound 0.949 µM) of the same compound?
Answer: The viability, T/C was 72.6%.

Question: What about the viability, T/C (second compound 0.3 µM, first compound 3 µM) of the same compound?
Answer: The viability, T/C was 54.6%.

Question: What about the viability, T/C (second compound 0.949 µM, first compound 0.00949 µM) of the same compound?
Answer: The viability, T/C was 101%.

Question: And the viability, T/C (second compound 0.949 µM, first compound 0.03 µM)?
Answer: The viability, T/C was 105%.

Question: What about the viability, T/C (second compound 0.949 µM, first compound 0.0949 µM) of the same compound?
Answer: The viability, T/C was 77.6%.

Question: And the viability, T/C (second compound 0.949 µM, first compound 0.3 µM)?
Answer: Its viability, T/C is 69.2%.

Question: What about the viability, T/C (second compound 0.949 µM, first compound 0.949 µM) of the same compound?
Answer: The viability, T/C was 63.9%.

Question: And the viability, T/C (second compound 0.949 µM, first compound 3 µM)?
Answer: The viability, T/C was 62.3%.

Question: What about the viability, T/C (second compound 3 µM, first compound 0.00949 µM) of the same compound?
Answer: The viability, T/C was 90.4%.

Question: What about the viability, T/C (second compound 3 µM, first compound 0.03 µM) of the same compound?
Answer: Its viability, T/C is 103%.

Question: And the viability, T/C (second compound 3 µM, first compound 0.0949 µM)?
Answer: The viability, T/C was 85.2%.

Question: What about the viability, T/C (second compound 3 µM, first compound 0.3 µM) of the same compound?
Answer: The viability, T/C was 76.2%.

Question: And the viability, T/C (second compound 3 µM, first compound 0.949 µM)?
Answer: The viability, T/C was 70.3%.

Question: And the viability, T/C (second compound 3 µM, first compound 3 µM)?
Answer: The viability, T/C was 58.4%.

Question: What about the viability, T/C (second compound 9.49 µM, first compound 0.00949 µM) of the same compound?
Answer: Its viability, T/C is 102%.

Question: And the viability, T/C (second compound 9.49 µM, first compound 0.03 µM)?
Answer: Its viability, T/C is 94.6%.

Question: What about the viability, T/C (second compound 9.49 µM, first compound 0.0949 µM) of the same compound?
Answer: Its viability, T/C is 88.5%.

Question: What about the viability, T/C (second compound 9.49 µM, first compound 0.3 µM) of the same compound?
Answer: Its viability, T/C is 79.8%.

Question: And the viability, T/C (second compound 9.49 µM, first compound 0.949 µM)?
Answer: Its viability, T/C is 70.2%.

Question: And the viability, T/C (second compound 9.49 µM, first compound 3 µM)?
Answer: The viability, T/C was 67.1%.

Question: And the viability, T/C (second compound 30 µM, first compound 0.00949 µM)?
Answer: The viability, T/C was 103%.

Question: And the viability, T/C (second compound 30 µM, first compound 0.03 µM)?
Answer: Its viability, T/C is 92.2%.

Question: And the viability, T/C (second compound 30 µM, first compound 0.0949 µM)?
Answer: Its viability, T/C is 88.6%.

Question: And the viability, T/C (second compound 30 µM, first compound 0.3 µM)?
Answer: The viability, T/C was 71.7%.

Question: What about the viability, T/C (second compound 30 µM, first compound 0.949 µM) of the same compound?
Answer: Its viability, T/C is 71.3%.

Question: What about the viability, T/C (second compound 30 µM, first compound 3 µM) of the same compound?
Answer: Its viability, T/C is 60.1%.
